Test results published in the NIST ThermoML archive (doi:10.1016/j.jct.2005.04.015).

Assay: excess molar enthalpy (molar enthalpy of mixing); xn = mol fraction of the nth substance listed
Conditions: Liquid, Flow calorimetry

CCOC=O [ethyl methanoate] + CCCCO
excess molar enthalpy [kcal/mol]
Conditions | 298.15 K | 308.15 K
5000 kPa, x1 = 0.0499 | 0.0919 | –
5000 kPa, x1 = 0.1005 | 0.17 | –
5000 kPa, x1 = 0.1488 | 0.232 | –
5000 kPa, x1 = 0.2008 | 0.285 | –
5000 kPa, x1 = 0.2505 | 0.325 | –
5000 kPa, x1 = 0.3009 | 0.355 | –
5000 kPa, x1 = 0.3488 | 0.377 | –
5000 kPa, x1 = 0.4006 | 0.393 | –
5000 kPa, x1 = 0.4498 | 0.401 | –
5000 kPa, x1 = 0.4997 | 0.399 | –
5000 kPa, x1 = 0.6015 | 0.376 | –
5000 kPa, x1 = 0.65 | 0.356 | –
5000 kPa, x1 = 0.6991 | 0.33 | –
5000 kPa, x1 = 0.7489 | 0.294 | –
5000 kPa, x1 = 0.7993 | 0.252 | –
5000 kPa, x1 = 0.8503 | 0.202 | –
5000 kPa, x1 = 0.8983 | 0.148 | –
5000 kPa, x1 = 0.9507 | 0.073 | –
10000 kPa, x1 = 0.0497 | 0.0909 | –
10000 kPa, x1 = 0.1002 | 0.169 | –
10000 kPa, x1 = 0.1501 | – | 0.259
10000 kPa, x1 = 0.1514 | 0.233 | –
10000 kPa, x1 = 0.1999 | – | 0.314
10000 kPa, x1 = 0.2003 | 0.281 | –
10000 kPa, x1 = 0.2499 | 0.319 | –
10000 kPa, x1 = 0.2504 | – | 0.359
10000 kPa, x1 = 0.2989 | – | 0.39
10000 kPa, x1 = 0.3002 | 0.348 | –
10000 kPa, x1 = 0.3508 | – | 0.416
10000 kPa, x1 = 0.3513 | 0.372 | –
10000 kPa, x1 = 0.3998 | 0.385 | –
10000 kPa, x1 = 0.4007 | – | 0.431
10000 kPa, x1 = 0.449 | 0.393 | –
10000 kPa, x1 = 0.4514 | – | 0.438
10000 kPa, x1 = 0.4989 | 0.393 | –
10000 kPa, x1 = 0.4998 | – | 0.437
10000 kPa, x1 = 0.549 | – | 0.429
10000 kPa, x1 = 0.5494 | 0.385 | –
10000 kPa, x1 = 0.5988 | – | 0.414
10000 kPa, x1 = 0.6007 | 0.371 | –
10000 kPa, x1 = 0.6492 | 0.35 | 0.391
10000 kPa, x1 = 0.6984 | 0.324 | –
10000 kPa, x1 = 0.7004 | – | 0.361
10000 kPa, x1 = 0.7482 | 0.288 | –
10000 kPa, x1 = 0.7493 | – | 0.326
10000 kPa, x1 = 0.7987 | 0.244 | 0.281
10000 kPa, x1 = 0.8488 | – | 0.228
10000 kPa, x1 = 0.8499 | 0.193 | –
10000 kPa, x1 = 0.8996 | – | 0.165
10000 kPa, x1 = 0.9018 | 0.134 | –
10000 kPa, x1 = 0.9506 | 0.0751 | –

CCOC=O [ethyl methanoate] + CCCO
excess molar enthalpy [kcal/mol]
Conditions | 298.15 K | 308.15 K
5000 kPa, x1 = 0.0488 | 0.0707 | –
5000 kPa, x1 = 0.1003 | 0.15 | –
5000 kPa, x1 = 0.1515 | 0.212 | –
5000 kPa, x1 = 0.1993 | 0.258 | –
5000 kPa, x1 = 0.2498 | 0.297 | –
5000 kPa, x1 = 0.3 | 0.324 | –
5000 kPa, x1 = 0.3498 | 0.344 | –
5000 kPa, x1 = 0.3992 | 0.359 | –
5000 kPa, x1 = 0.4512 | 0.363 | –
5000 kPa, x1 = 0.5 | 0.361 | –
5000 kPa, x1 = 0.5513 | 0.353 | –
5000 kPa, x1 = 0.5995 | 0.341 | –
5000 kPa, x1 = 0.6501 | 0.323 | –
5000 kPa, x1 = 0.7003 | 0.297 | –
5000 kPa, x1 = 0.7502 | 0.265 | –
5000 kPa, x1 = 0.7998 | 0.225 | –
5000 kPa, x1 = 0.849 | 0.181 | –
5000 kPa, x1 = 0.9006 | 0.124 | –
5000 kPa, x1 = 0.9491 | 0.0666 | –
10000 kPa, x1 = 0.0487 | 0.0792 | 0.0703
10000 kPa, x1 = 0.1 | 0.158 | –
10000 kPa, x1 = 0.1511 | 0.22 | 0.221
10000 kPa, x1 = 0.1988 | 0.266 | 0.269
10000 kPa, x1 = 0.2492 | 0.303 | 0.309
10000 kPa, x1 = 0.2993 | 0.331 | 0.34
10000 kPa, x1 = 0.349 | 0.35 | 0.361
10000 kPa, x1 = 0.4013 | 0.363 | 0.376
10000 kPa, x1 = 0.4504 | 0.37 | 0.383
10000 kPa, x1 = 0.4992 | 0.368 | 0.382
10000 kPa, x1 = 0.5505 | 0.361 | 0.374
10000 kPa, x1 = 0.5987 | 0.348 | 0.359
10000 kPa, x1 = 0.6493 | 0.329 | 0.337
10000 kPa, x1 = 0.6996 | 0.302 | 0.311
10000 kPa, x1 = 0.7496 | 0.27 | 0.276
10000 kPa, x1 = 0.7993 | 0.232 | 0.234
10000 kPa, x1 = 0.8513 | 0.184 | 0.185
10000 kPa, x1 = 0.9003 | 0.132 | 0.134
10000 kPa, x1 = 0.949 | 0.072 | 0.0643
